Test results published in patent US20240124410A1, “SMALL MOLECULES AND THEIR USE AS MALT1 INHIBITORS” (University of Pittsburgh - Of the Commonwealth System of …, priority 2021, published 2024).

Key:
CHRM2 = target: T1, CHRM2 (Homo sapiens, UniProt P08172); assay: Eurofins SAFETYscan 78-target panel, off-target effects, CHRM2; format: biochemical; details: antagonist / blocker / inhibitor mode
T1 construct: Eurofins
T1 sequence (P08172 1-466): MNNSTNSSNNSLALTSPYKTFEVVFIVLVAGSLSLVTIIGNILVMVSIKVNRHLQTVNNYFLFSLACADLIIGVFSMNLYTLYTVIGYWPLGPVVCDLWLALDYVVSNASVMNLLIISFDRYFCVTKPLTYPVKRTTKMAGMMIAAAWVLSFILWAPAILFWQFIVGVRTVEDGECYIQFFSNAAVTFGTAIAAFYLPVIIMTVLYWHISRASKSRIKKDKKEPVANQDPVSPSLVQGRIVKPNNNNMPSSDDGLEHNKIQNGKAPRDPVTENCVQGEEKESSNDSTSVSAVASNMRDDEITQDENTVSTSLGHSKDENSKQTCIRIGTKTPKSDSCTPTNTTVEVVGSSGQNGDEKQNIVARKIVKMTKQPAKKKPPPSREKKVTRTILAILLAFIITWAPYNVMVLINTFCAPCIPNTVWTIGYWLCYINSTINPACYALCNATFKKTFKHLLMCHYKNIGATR
Description: (§1) FIG. 9. Table summarizing the Eurofins analysis of potential off-target effects of M1i-124. […] values above 10 μM are generally considered to be acceptable. FIG. 10. Representative hematoxylin and eosin (H&E) staining of organ sections (lung, heart, kidney, liver and adrenal) from control and M1i-124 treated mice described in FIG. 6.
(§2) Studies were performed using the services of Touchstone Biosciences and Eurofins Pharma Discovery Services. […] All blood samples (30-50 ul per sample) were taken via tail vein at 5, 15, and 30 minutes, and 1, 2, 4, 6, 8, and 24 hours after dosing. Blood samples are collected in Greiner MiniCollect K2 EDTA tubes, placed on ice, and within 30 minutes, centrifuged at 15,000 g for 5 minutes to obtain plasma samples. All plasma samples are stored at −70° C. until analysis. Plasma samples were prepared for analysis by LC-MS/MS, and key PK parameters, including terminal half-life (t 112), initial plasma concentration (C0), area under the plasma concentration vs. time curve (AUC), volume of distribution at steady-state (Vss), total plasma clearance (CLp), and mean residence time (MRT), were measured.
(§3) Assay details are available through Eurofins.

CNR2 = target: T2, CNR2 (Homo sapiens, UniProt P34972); assay: Eurofins SAFETYscan 78-target panel, off-target effects, CNR2; format: biochemical; details: antagonist / blocker / inhibitor mode
T2 construct: Eurofins
T2 sequence (P34972 whole entry): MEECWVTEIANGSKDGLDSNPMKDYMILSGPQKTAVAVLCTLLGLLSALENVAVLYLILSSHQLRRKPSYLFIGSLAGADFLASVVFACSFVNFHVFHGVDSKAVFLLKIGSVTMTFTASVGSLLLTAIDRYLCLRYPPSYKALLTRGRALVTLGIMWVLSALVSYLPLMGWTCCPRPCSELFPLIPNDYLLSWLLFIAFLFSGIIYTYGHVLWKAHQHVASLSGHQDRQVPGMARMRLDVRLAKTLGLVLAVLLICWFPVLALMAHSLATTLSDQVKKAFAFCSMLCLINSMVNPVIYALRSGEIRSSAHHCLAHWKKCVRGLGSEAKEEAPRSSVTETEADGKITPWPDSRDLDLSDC
Description: as §1, §2, §3

DRD1 = target: T3, DRD1 (Homo sapiens, UniProt P21728); assay: Eurofins SAFETYscan 78-target panel, off-target effects, DRD1; format: biochemical; details: antagonist / blocker / inhibitor mode
T3 construct: Eurofins
T3 sequence (P21728 whole entry): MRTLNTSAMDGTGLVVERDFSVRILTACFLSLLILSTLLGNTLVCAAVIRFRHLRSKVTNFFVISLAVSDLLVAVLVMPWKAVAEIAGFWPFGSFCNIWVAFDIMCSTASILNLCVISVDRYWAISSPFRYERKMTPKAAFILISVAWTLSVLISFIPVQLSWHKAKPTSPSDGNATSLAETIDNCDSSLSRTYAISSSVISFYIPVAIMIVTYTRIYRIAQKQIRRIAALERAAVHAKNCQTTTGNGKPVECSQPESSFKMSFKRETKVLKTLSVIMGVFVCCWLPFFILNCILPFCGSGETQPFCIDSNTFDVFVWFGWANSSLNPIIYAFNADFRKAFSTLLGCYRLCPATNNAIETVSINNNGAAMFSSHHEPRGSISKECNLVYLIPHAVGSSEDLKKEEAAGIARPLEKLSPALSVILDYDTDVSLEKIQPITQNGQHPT
Description: as §1, §2, §3

nAChR(a4/b2) = target: T4, nAChR(a4/b2) (Homo sapiens, UniProt P17787+P43681); assay: Eurofins SAFETYscan 78-target panel, off-target effects, nAChR(a4/b2); format: biochemical; details: antagonist / blocker / inhibitor mode
T4 construct: Eurofins
T4 sequence (P43681 29-627 limits assumed): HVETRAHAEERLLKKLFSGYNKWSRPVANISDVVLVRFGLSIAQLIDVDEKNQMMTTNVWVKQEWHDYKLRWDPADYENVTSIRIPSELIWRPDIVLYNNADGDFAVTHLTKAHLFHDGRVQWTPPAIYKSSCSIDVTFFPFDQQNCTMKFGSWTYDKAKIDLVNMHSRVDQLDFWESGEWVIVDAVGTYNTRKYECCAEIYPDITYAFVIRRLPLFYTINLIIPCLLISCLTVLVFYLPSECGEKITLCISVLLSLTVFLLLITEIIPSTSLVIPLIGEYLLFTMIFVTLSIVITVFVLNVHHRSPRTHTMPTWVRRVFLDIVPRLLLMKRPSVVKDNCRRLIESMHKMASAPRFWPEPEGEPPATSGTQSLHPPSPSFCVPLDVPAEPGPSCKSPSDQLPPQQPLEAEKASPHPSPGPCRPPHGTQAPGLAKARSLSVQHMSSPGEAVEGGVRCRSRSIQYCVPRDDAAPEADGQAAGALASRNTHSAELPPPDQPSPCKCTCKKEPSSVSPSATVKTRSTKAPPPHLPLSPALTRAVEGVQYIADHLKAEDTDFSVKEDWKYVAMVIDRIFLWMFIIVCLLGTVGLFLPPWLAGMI
T4 sequence (P17787 26-502): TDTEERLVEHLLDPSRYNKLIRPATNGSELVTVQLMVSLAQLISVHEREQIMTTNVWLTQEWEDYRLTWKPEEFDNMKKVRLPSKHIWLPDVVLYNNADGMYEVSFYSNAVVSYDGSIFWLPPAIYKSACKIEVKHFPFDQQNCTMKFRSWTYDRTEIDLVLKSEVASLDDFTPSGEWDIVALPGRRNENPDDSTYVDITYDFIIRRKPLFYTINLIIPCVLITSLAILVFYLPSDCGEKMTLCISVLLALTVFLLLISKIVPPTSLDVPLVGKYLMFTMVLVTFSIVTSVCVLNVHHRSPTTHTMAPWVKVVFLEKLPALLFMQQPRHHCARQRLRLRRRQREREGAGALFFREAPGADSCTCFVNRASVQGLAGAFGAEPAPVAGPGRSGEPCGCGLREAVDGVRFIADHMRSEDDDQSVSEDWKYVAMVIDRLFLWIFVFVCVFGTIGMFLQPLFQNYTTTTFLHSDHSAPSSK
Description: as §1, §2, §3

[1] = test system: anti-CD3/CD28-induced phosphorylation of IKKα/β; assay: Phosphorylation of IKKα/β in Jurkat T cells (Western blot); format: cell-based; details: 20 hours pretreatment, anti-CD3/CD28 for 0-20 minutes
Description: The DLBCL cell lines, OCI-Ly1, OCI-Ly3, and OCI-Ly7, were provided by Dr. Mark Minden (University Health Network, Toronto, Ontario, Canada). TMD8 cells were provided by Dr. Louis Staudt (NCI, NIH). OCI-Ly1 and OCI-Ly7 cells were cultured in Iscove's Modified Dulbecco's Medium (IMDM) supplemented with 10% FBS. OCI-Ly3 cells were cultured in IMDM supplemented with 20% FBS. TMD8 and Jurkat T cells were cultured in RPMI1640 medium with 10% FBS. HEK293T cells were cultured in DMEM medium with 10% FBS. All media were supplemented with 100 U/ml penicillin streptomycin. Stimulation of Jurkat cells was conducted by adding 5 ng/ml of phorbol 12-myristatel3 acetate (PMA)(Sigma-Aldrich) and 1μM ionomycin (Calbiochem), or by adding 5-10 μL/mL of ImmunoCult Human CD3/CD28 ([…] Technologies).

IL-2 secretion = IL-2 secretion (ELISA); format: cell-based, human; details: dose-response
Description: (§4) Expression of cytokines from cell culture supernatants was measured 24h after treatment with 0, 0.01, 0.03, 0.1, 0.3, 1, or 3 uM of compounds using the following ELISA kits according to the manufacturer's instructions: Human IL-2 ELISA (BioLegend Cat #431804), Human IL-6 ELISA (BioLegend Cat #430504), and Human IL-10 ELISA (BioLegend Cat #430604).

[2] = test system: IL-6 and IL-10 secretion in OCI-Ly3 cells; assay: IL-6 and IL-10 secretion by OCI-Ly3 cells (ELISA); format: cell-based, human
Description: as §4

TMD8 ABC-DLBCL cells = assay: Cell proliferation (cell count, trypan blue exclusion), TMD8; format: cell-based; details: TMD8, single dose of 1 μM, 12 days
Text: Cell number was counted using the trypan blue dye exclusion method with Vi-CELL cell viability analyzer (Beckman Coulter) at days 7, 10, and 12 of treatment with compounds. Cell proliferation was specifically evaluated using the CellTrace Violet reagent (ThermoFisher Cat #C34571) which undergoes dilution with each round of cell division. 1.5×10^6 cells were washed twice in PBS and resuspended in 2 mls of PBS.

Structure (SMILES)	IC50 (CHRM2)	IC50 (CNR2)	IC50 (DRD1)	IC50 (nAChR(a4/b2))	Phosphorylation of IKKα/β (phospho-IKK/total IKK) [1]	IL-2 secretion (IL-2 secretion)	IL-6 secretion [2]	IL-10 secretion [2]	Proliferation (TMD8 ABC-DLBCL cells)
O=S(=O)(NCc1ccc2c(c1)OCO2)c1ccc(Cc2ccc(S(=O)(=O)NCc3ccc4c(c3)OCO4)cc2)cc1 [M1i-124]	1200 nM	9900 nM	1900 nM	4000 nM	–	–	–	–	–
COc1ccc(CNS(=O)(=O)c2ccc(Cc3ccc(S(=O)(=O)NCc4ccc(OC)cc4)cc3)cc2)cc1 [M1i-124d1]	–	–	–	–	leads to inhibition	dose-dependent inhibition	inhibit IL-6 and IL-10 secretion in a concentration-dependent manner	inhibit IL-6 and IL-10 secretion in a concentration-dependent manner	inhibit the proliferation
